{
  "source": "patent US20250059074A1",
  "about": "“ANTIMICROBIAL SYSTEM AND METHOD” (KEMIRA OYJ, priority 2021, published 2025)",
  "system": "Pseudoxanthomonas taiwanensis biofilm",
  "assay": "Biofilm test in 96-microwell plates with peg lids, Crystal Violet quantification",
  "assay_type": "cell-based",
  "conditions": "for Impact (biofilm reduction percentage vs no added chemicals): 45° C., 150 rpm",
  "text": "Authentic cooling water was obtained from a cooling water system in Germany. Proteobacteria are commonly found from cooling waters (Water Research 159 (2019): 464-479). In the biofilm-experiments the test water was spiked with Pseudoxanthomonas taiwanensis, a biofilm-forming species belonging to the phylum Proteobacter. Biofilm tests were done in simulated cooling water, SCW (prepared according to Marziya Rizvi et al., Nature Scientific Reports | (2021) 11:8353) using 96-microwell plate wells with peg lids (Thermo Fischer Scientific Inc., USA). Plates were incubated at 45° C. with a rotary shaking (150 rpm) providing high flow in each well. Wells of 96-microwell plates with peg-lids were filled with 10% authentic cooling water, 89% SCW and 1% of pure culture of Pseudoxanthomonas taiwanensis. Biofilm was grown at 45° C. with a rotary shaking (150 rpm) for 24 hours without addition of any chemical compound to be tested. After 24 hours from starting the test, the wells were emptied and a fresh solution comprising 10% authentic cooling water, 89% SCW and 1% of pure culture of Pseudoxanthomonas taiwanensis with different amounts of chemical compounds to be tested were added and the original peg-lid was placed back in place. After an additional 24 hours the wells were emptied and the biofilm amount on the pegs was quantified. The amount of biofilm formed on the peg surfaces was quantified with a staining solution by adding 200 μl of 1% Crystal Violet (Merck Millipore KGaA, Germany) in methanol to each well in a clean 96-well plate and placing the biofilm-containing peg-lid on it. After 3 minutes the wells were emptied and the wells and pegs were rinsed 3 times with tap water. Finally the peg-lid was placed in a clean 96-well plate, the attached Crystal Violet was dissolved into ethanol and the absorbance at 595 nm was measured. All parts per million (ppm) amounts given in Example 1 are as active ingredients. The Impact values are calculated as biofilm reduction percentages based on a comparison with no added chemicals. A positive value indicates a reduction in amount of biofilm whereas a negative value indicates an increase in the amount of biofilm. […] Biofilm was stained and quantified by absorbance measurement. Dosages are given as active ingredients.",
  "data": [
    {"smiles": "OCl", "note": "[Sodium hypochlorite]", "values": [
      {"measurement": "Impact (biofilm reduction percentage vs no added chemicals)", "setting": "Sodium hypochlorite 2 ppm alone, authentic cooling water+SCW+P. taiwanensis, 24 h on pre-grown biofilm, negative = increase", "result": "−30", "unit": "%"},
      {"measurement": "Impact (biofilm reduction percentage vs no added chemicals)", "setting": "Sodium hypochlorite 4 ppm alone, 24 h, negative = increase", "result": "−27", "unit": "%"},
      {"measurement": "Impact (biofilm reduction percentage vs no added chemicals)", "setting": "Sodium hypochlorite 8 ppm alone, 24 h, negative = increase", "result": "−25", "unit": "%"},
      {"measurement": "Impact (biofilm reduction percentage vs no added chemicals)", "setting": "Sodium hypochlorite 12 ppm alone, 24 h, negative = increase", "result": "−10", "unit": "%"},
      {"measurement": "Impact (biofilm reduction percentage vs no added chemicals)", "setting": "Sodium hypochlorite 16 ppm alone, 24 h", "result": 6, "unit": "%"},
      {"measurement": "Dosage required to reach noticeable biofilm reduction efficacy", "setting": "Sodium hypochlorite on its own, as active compound", "result": 16, "unit": "ppm"}
    ]},
    {"smiles": "Cc1ccc(S(=O)(=O)C=CC#N)cc1", "note": "[Compound A, 3-[(4-methylphenyl)sulphonyl]-2-propenenitrile]", "values": [
      {"measurement": "Impact (biofilm reduction percentage vs no added chemicals)", "setting": "Compound A 0.15 ppm alone, 24 h, negative = increase", "result": "−19", "unit": "%"},
      {"measurement": "Impact (biofilm reduction percentage vs no added chemicals)", "setting": "Compound A 0.30 ppm alone, 24 h", "result": 2, "unit": "%"},
      {"measurement": "Impact (biofilm reduction percentage vs no added chemicals)", "setting": "Compound A 0.45 ppm alone, 24 h", "result": 8, "unit": "%"}
    ]}
  ]
}
